Results: patent US20250017888A1, “COMPOUNDS FOR TREATING DISEASES ASSOCIATED WITH HYALURONAN OVERPRODUCTION” (THE ROYAL VETERINARY COLLEGE, priority 2021, published 2025)

Assays:
Str/ort mice = assay: Histology and grading of articular cartilage lesions in Str/ort mice; type: in vivo, mouse
Experimental: At 10-13 weeks of age, 21 male Str/ort mice (n=7/group) were assigned randomly to vehicle, hylin-betaine and xantho-betaine groups and were treated intraperitoneally 18 weeks with either vehicle (5% DMSO in 95% peanut oil), 50 mg/kg compound of Example 1 (“hylin-betaine”) in 5% DMSO and 95% peanut oil or 50 mg/kg compound of Example 2 (“xantho-betaine”) in 5% DMSO and 95% peanut oil. Dissected right knees were fixed in neutral buffered formalin, decalcified (Immunocal, Quartett, Berlin), wax-embedded and 6 μm coronal sections cut. Multiple sections (five/slide) from 120 μm intervals across the whole joint were stained with Tollidine blue (0.1% in 0.1 M acetate buffer, pH 5.6) and AC lesion severity graded. Sections from right vehicle, hylin-betaine and xantho-betaine treated Str/ort joints were stained with Safranin O. Sections were dewaxed, and AC lesion severity was scored in Str/ort mice by the methods of Chambers et al., (Chambers et al Expression of collagen and aggrecan genes in normal and osteoarthritic murine knee joints. Osteoarthritis and cartilage/OARS, Osteoarthritis Research Society. 2002; 10(1):51-61) consistent with an internationally-recognized system. Briefly, grade 0: normal; grade 1: rough surface or superficial zone lesions; grade 2: lesion down to the intermediate zone; grade 3: lesions down to tidemark or loss of AC; grades 4 and 5: AC loss across between 20% and 50% or 50-80% of condylar surface; grade 6: loss with subchondral bone exposure. Multiple slides (˜10), each containing five 6 μm sections sampled at 120 μm intervals spanning each entire joint were graded. Grading in each joint compartment (lateral/medial, tibia/femur) allowed for a maximum (most severe) grade to be assigned in each section, and used to produce an overall ‘average’ maximum grade in each group of mice, for the entire joint and for each compartment. In addition, a mean score was produced for each joint and for each compartment and these similarly used to produce an overall ‘average’ mean grade in each group of mice. Mean grades provide a measure of the ‘extent’ of AC lesion (representing relative volume) in each joint/compartment.

[1] = Alamar blue toxicity assay (FIG. 1); type: cell-based; details: below concentrations of 100 μM
Experimental: (§1) The hyaluronan synthase activity (Prehm, P. and Schumacher, U., Biochem. Pharmacol. 2004, 68, 1401-1410), the cytotoxicity of the drugs (O'Brien, J. et al., Eur. J. Biochem. 2000, 267, 5421-5426), proteoglycan synthesis rate, hyaluronan (Prehm, P. J. Rheumatol., 2005, 32, 690-696) and proteoglycan (Bjornsson, S. Anal. Biochem. 1993, 210, 282-291) were determined as described. The effect of the prenylflavonoids on the MRP5 export rate was measured with fluorescein diacetate as described (Schulz, T., Schumacher, U., and Prehm, P., J Biol. Chem., 2007, 282, 20999-21004). The determination of the IC50 values on the phosphodiesterase 5 was performed according to the instructions of BPS Bioscience. The culture of bovine chondrocytes in alginate beads and of explants of bovine cartilage was described previously (Deiters, B. and Prehm, P. Arthritis Res. Ther., 2008, 10, R8; Prehm, P. J. Rheumatol. 2005, 32, 690-696). Osteoarthritic reactions were induced in chondrocytes growing in alginate beads by incubation with medium containing 10 ng/ml of II-17 for 6 days, and in cartilage explants with 10 ng/ml of II-17 and 5 ng/ml of II-1α. The supernatants were withdrawn and stored at −20° C. for later analysis. The explants were weighed and extracted with 1 ml of 4 M guanidinium-HCl for 72 hours at 4° C. The proteoglycan concentrations were determined in the extracts.
The toxicity was determined by the Alamar blue assay.

chondrosarcoma cells = assay: Uptake of flavonoids into chondrosarcoma cells by intracellular fluorescence; type: cell-based; details: concentration dependence, FIG. 2A
Experimental: Confluent monolayers of chondrosarcoma cells on 96 well microtiter plates were incubated with 100 μM solutions of flavonoids in serum-free Quantum medium. Changes in fluorescence were monitored from the bottom of the wells at excitation and emission wavelengths of 340 nm and 450 nm for xanthohumol and at 440 nm and 530 nm for quercetin, respectively.
Flavonoids are weakly fluorescent in aqueous buffer, but greatly enhance the fluorescence in the presence of proteins (Sengupta, B. and Sengupta, P. K., Biochem. Biophys. Res. Commun., 2002, 299, 400-403). This property was used to follow the uptake of quercetin and xanthohumol into chondrosarcoma cells.

[2] = system: chondrosarcoma cells (SW1353); assay: Alamar blue staining of chondrosarcoma; type: cell-based; details: Homo sapiens
Experimental: as §1
Chondrosarcoma cells (SW1353 from the American Type Culture Collection) were grown in Dulbecco's medium supplemented with streptomycin/penicillin (100 units of each/ml), 10% foetal calf serum or in serum free Quantum medium supplemented with streptomycin/penicillin (100 units of each/ml), kanamycin (100 units/ml).

[3] = system: bovine cartilage explants; assay: Proteoglycan loss from interleukin activated bovine cartilage explants; type: cell-based
Experimental: Cartilage explants were weighed (average wet weight: 20 mg) incubated in the absence and presence of IL-1 (2 ng/ml) and the inhibitors at various concentrations for 5 days. The tissues were extracted with 1.5 ml of a solution of 4 M guanidinium hydrochloride, 0.1 M ε-aminohexanoid acid, 5 mM benzamidine, 10 mM N-ethylmaleinimide, 0.5 mM phenylmethylsulfonyl fluoride for 3 days at 4° C. The solution was centrifuged for 5 min at 10.000 g and the proteoglycans were determined in the supernatant by the alcian blue method as described (Bjornsson, S., Anal. Biochem., 1993, 210, 282-291).
Bovine cartilage explants were incubated in the absence and presence of interleukin for stimulation of osteoarthritic reactions and the indicated concentrations of the xanthohumol-betaine (FIG. 6A), xanthohumol-prothiazole (FIG. 6B), quercetin-prothiazole (FIG. 6C), quercetin (FIG. 6D) and xanthohumol (FIG. 6E) for 5 days. The cartilage explants were weighed and the proteoglycan concentrations were determined in the cartilage explants (solid bars) and culture supernatants (open bars).

Q: For `COc1cc(O)c(CC=C(C)C)c(O)c1C(=O)/C=C/c1ccc(OC(=O)C[N+](C)(C)C)cc1.[Cl-]` [Xantho-betaine, (E)-2-(4-(3-(2,4-dihydroxy-6-methoxy-3-(3-methylbut-2-en-1-yl)phenyl)-3-oxoprop-1-en-1-yl)phenoxy)-N,N,N-trimethyl-2-oxoethanaminium chloride], which “effect on articular cartilage lesions / development of OA (overall)” value (Str/ort mice; 50 mg/kg intraperitoneally, 18 weeks, vs vehicle) is on record?
A: The value was “no such protection”.

Q: What about the “maximum OA score” value (Str/ort mice; vs vehicle treated Str/ort mice) of the same compound?
A: Its value is “not found to be statistically significant”.

Q: What about the “toxicity in Alamar blue assay” value [1] of the same compound?
A: Its value is “not toxic”.

Q: And the “uptake into chondrosarcoma cells (intracellular fluorescence)” value (chondrosarcoma cells)?
A: The value was “taken up in a concentration dependent manner”.

Q: What about the IC50 [2] of the same compound?
A: The IC50 was 275 µM.

Q: And the IC50 ([3]; Bos taurus, read-out: IC50 Inhibition of proteoglycan loss)?
A: Its IC50 is 0.3 µM.

Q: And the “inhibition of proteoglycan loss (protective effect)” value ([3]; interleukin stimulated, 5 days)?
A: Its value is “similarly effective”.
